What was measured:
Src (p60^c-src) = molecular target: T1, Src (p60^c-src) (Homo sapiens, UniProt P12931); test: SRC-Inhibitor-Assay (time-resolved fluorescence kinase assay), Src; assay type: biochemical; conditions: ATP 5 μM, peptide 10 μM, enzyme 2.5 U/ml, pH 7.3
T1 construct: purchased UBI, Upstate Biotech, Inc
Description: (§1) The activity of the compounds according to this invention as inhibitors for the src-family tyrosine kinases was shown by using the following assay.
(§2) ATP, Tween™ 20, 4-(2-hydroxyethyl)-1-piperazineethanesulfonic acid (HEPES) were purchased from Roche Molecular Biochemicals, MgCl2 and MnCl2 were purchased from Merck Eurolab, Tris(2-carboxyethyl)phosphine hydrochloride (TCEP) was purchased from Pierce, 384 Well low volume fluorescence plates was purchased from Falcon.
(§3) At first the enzyme is pre-incubated for 15 min. at 15° C. in aqueous solution with corresponding amounts of inhibitors according to this invention. Then the phosphorylation reaction is started by adding a reaction mixture, containing ATP, Peptide and PT66, and subsequent shaking. The proceeding of this reaction is immediately monitored using time resolved fluorescence spectroscopy in a suitable well plate reader.
(§4) The IC50-values can be obtained from the reaction rates by using a non-linear curve fit (XLfit software (ID Business Solution Ltd., Guilford, Surrey, UK))

Lck (p56^lck) = molecular target: T2, Lck (p56^lck) (Homo sapiens, UniProt P06239); test: SRC-Inhibitor-Assay (time-resolved fluorescence kinase assay), Lck; assay type: biochemical; conditions: ATP 5 μM, peptide 10 μM, enzyme 2.5 U/ml, pH 7.3
T2 construct: purchased UBI, Upstate Biotech, Inc
T2 sequence (P06239 whole entry): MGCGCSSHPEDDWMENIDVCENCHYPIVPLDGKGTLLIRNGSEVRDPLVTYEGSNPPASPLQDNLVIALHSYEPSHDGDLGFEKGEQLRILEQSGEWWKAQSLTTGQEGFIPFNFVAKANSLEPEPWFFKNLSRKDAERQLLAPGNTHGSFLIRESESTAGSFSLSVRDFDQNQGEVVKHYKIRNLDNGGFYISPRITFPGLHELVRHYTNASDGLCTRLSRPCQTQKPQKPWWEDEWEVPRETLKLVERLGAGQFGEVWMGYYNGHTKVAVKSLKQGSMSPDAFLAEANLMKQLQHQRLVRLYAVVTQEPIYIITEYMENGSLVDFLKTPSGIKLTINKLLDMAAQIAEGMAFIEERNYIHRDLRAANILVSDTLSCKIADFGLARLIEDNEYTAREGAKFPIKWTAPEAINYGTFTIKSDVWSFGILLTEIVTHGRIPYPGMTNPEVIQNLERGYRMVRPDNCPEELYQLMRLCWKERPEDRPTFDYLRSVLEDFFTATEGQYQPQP
Description: as §1, §2, §3, §4

T1 sequence (P12931 whole entry): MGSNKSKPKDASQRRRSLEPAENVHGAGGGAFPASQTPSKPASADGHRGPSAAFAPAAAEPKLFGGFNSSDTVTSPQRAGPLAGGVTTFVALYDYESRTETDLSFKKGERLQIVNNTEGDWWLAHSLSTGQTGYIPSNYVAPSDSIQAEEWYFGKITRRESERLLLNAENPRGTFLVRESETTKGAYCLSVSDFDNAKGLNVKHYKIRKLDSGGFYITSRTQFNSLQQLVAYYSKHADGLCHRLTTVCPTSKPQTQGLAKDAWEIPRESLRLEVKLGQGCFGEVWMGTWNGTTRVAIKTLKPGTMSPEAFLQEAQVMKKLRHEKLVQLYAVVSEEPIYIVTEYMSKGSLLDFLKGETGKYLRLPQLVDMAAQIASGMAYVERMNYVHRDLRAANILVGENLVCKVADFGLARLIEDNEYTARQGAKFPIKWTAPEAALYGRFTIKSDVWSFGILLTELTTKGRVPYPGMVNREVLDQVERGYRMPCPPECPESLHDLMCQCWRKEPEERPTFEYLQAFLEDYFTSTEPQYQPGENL

| Compound | IC50 (Src (p60^c-src)) [nM] | IC50 (Lck (p56^lck)) [nM] | melting point |
| --- | --- | --- | --- |
| CCC(C)OC(=O)Nc1cnc2[nH]c(-c3ccccc3)nc2c1 (stereo not drawn) [Example 1-9, (2-Phenyl-3H-imidazo[4,5-b]pyridin-6-yl)-carbamic acid sec-butyl ester] | 10 to 500 | 100 to 9000 | – |
| CC(C)OC(=O)Nc1cnc2[nH]c(-c3ccsc3)nc2c1 [Example 2-7, (2-Thiophen-3-yl-3H-imidazo[4,5-b]pyridin-6-yl)-carbamic acid isopropyl ester] | – | – | 342 °C (dec.) |
| COCCOc1ccc(-c2nc3cc(NC(=O)OC(C)C)cnc3[nH]2)cc1 [Example 2-3, {2-[4-(2-Methoxy-ethoxy)-phenyl]-3H-imidazo[4,5-b]pyridin-6-yl}-carbamic acid isopropyl ester] | 10 to 500 | 100 to 9000 | – |
| CC(C)OC(=O)Nc1cnc2[nH]c(-c3ccnc(Cl)c3)nc2c1 [Example 12-1, [2-(2-Chloro-pyridin-4-yl)-3H-imidazo[4,5-b]pyridin-6-yl]-carbamic acid isopropyl ester] | 10 to 500 | 100 to 9000 | – |
| CC(C)OC(=O)Nc1cnc2[nH]c(-c3cccc([S+](C)[O-])c3)nc2c1 (stereo not drawn) [Example 8-1, [2-(3-Methylsulfinyl-phenyl)-3H-imidazo[4,5-b]pyridin-6-yl]-carbamic acid isopropyl ester] | 10 to 500 | 100 to 9000 | – |
| CC(C)(C)COC(=O)Nc1cnc2[nH]c(-c3ccccc3)nc2c1 [Example 1-12, (2-Phenyl-3H-imidazo[4,5-b]pyridin-6-yl)-carbamic acid 2,2-dimethyl-propyl ester] | 500 to 1500 | 2000 to 9000 | – |
| CC(C)OC(=O)Nc1cnc2[nH]c(-c3cccc(C(=O)O)c3)nc2c1 [Example 11-1, 3-(6-Isopropoxycarbonylamino-3H-imidazo[4,5-b]pyridin-2-yl)-benzoic acid] | 500 to 1500 | 2000 to 9000 | – |
| CC(C)OC(=O)Nc1cnc2[nH]c(-c3ccc(N4CCOCC4)nc3)nc2c1 [Example 3-7, [2-(6-Morpholin-4-yl-pyridin-3-yl)-3H-imidazo[4,5-b]pyridin-6-yl]-carbamic acid isopropyl ester] | 10 to 500 | 100 to 9000 | – |
| O=C(Nc1cnc2[nH]c(-c3ccccc3)cc2c1)OCc1ccccc1 [Example 9-8, (2-Phenyl-1H-pyrrolo[2,3-b]pyridin-5-yl)-carbamic acid benzyl ester] | 10 to 500 | 100 to 9000 | – |
| CC(=O)Nc1cccc(-c2cc3cc(NC(=O)OCc4ccccc4)cnc3[nH]2)c1 [Example 9-23, [2-(3-Acetylamino-phenyl)-1H-pyrrolo[2,3-b]pyridin-5-yl]-carbamic acid benzyl ester] | 10 to 500 | 100 to 9000 | – |
| COCCOc1ccc(-c2cc3cc(NC(=O)OCC(C)C)cnc3[nH]2)cc1 [Example 9-19, {2-[4-(2-Methoxy-ethoxy)-phenyl]-1H-pyrrolo[2,3-b]pyridin-5-yl}-carbamic acid isobutyl ester] | 10 to 500 | 100 to 9000 | – |

Reference: US7786113B2, “Heterocyclic carbamate derivatives, their manufacture and use as pharmaceutical agents” (Hoffman-La Roche Inc., priority 2004, dated 2010)
